In the NIST ThermoML archive (doi:10.1016/j.fluid.2015.04.021):

Assay: cn = amount concentration of the nth substance listed, in mol/dm3
Details: 101.3 kPa, Liquid; for viscosity: Falling or rolling sphere viscometry; for mass density: Vibrating tube method

NCCCC[C@H](N)C(=O)[O-].[K+] [potassium L-lysinate] + O
Details | mass density [kg/m3] | viscosity [mPa·s]
298.15 K, c1 = 0.2001 | 1010.5 | 1.003
298.15 K, c1 = 0.25 | 1017.5 | 1.008
298.15 K, c1 = 0.5 | 1028.2 | 1.29
298.15 K, c1 = 0.75 | 1043.2 | 1.348
298.15 K, c1 = 1.008 | 1056 | 1.575
298.15 K, c1 = 1.529 | 1084.8 | 2.286
298.15 K, c1 = 1.79 | 1111 | 3.236
298.15 K, c1 = 2 | 1121.6 | 3.564
298.15 K, c1 = 2.5 | 1141.9 | 5.406
298.15 K, c1 = 3 | 1151 | 8.407
303.15 K, c1 = 0.2001 | 1009 | 0.8978
303.15 K, c1 = 0.25 | 1016 | 0.9023
303.15 K, c1 = 0.5 | 1027.1 | 1.158
303.15 K, c1 = 0.75 | 1041.4 | 1.2
303.15 K, c1 = 1.008 | 1054.1 | 1.397
303.15 K, c1 = 1.529 | 1082.7 | 2.007
303.15 K, c1 = 1.79 | 1108.6 | 2.805
303.15 K, c1 = 2 | 1119.1 | 3.054
303.15 K, c1 = 2.5 | 1139.1 | 4.597
303.15 K, c1 = 3 | 1148.3 | 7.027
308.15 K, c1 = 0.2001 | 1007.3 | 0.8095
308.15 K, c1 = 0.25 | 1014.2 | 0.8125
308.15 K, c1 = 0.5 | 1025.2 | 1.045
308.15 K, c1 = 0.75 | 1039.5 | 1.075
308.15 K, c1 = 1.008 | 1052 | 1.247
308.15 K, c1 = 1.529 | 1080.4 | 1.774
308.15 K, c1 = 1.79 | 1106 | 2.454
308.15 K, c1 = 2 | 1116.5 | 2.676
308.15 K, c1 = 2.5 | 1136.4 | 3.95
308.15 K, c1 = 3 | 1145.5 | 5.946
313.15 K, c1 = 0.2001 | 1005.4 | 0.7344
313.15 K, c1 = 0.25 | 1012.3 | 0.7377
313.15 K, c1 = 0.5 | 1023.2 | 0.9512
313.15 K, c1 = 0.75 | 1037.3 | 0.9697
313.15 K, c1 = 1.008 | 1049.8 | 1.121
313.15 K, c1 = 1.529 | 1077.9 | 1.581
313.15 K, c1 = 1.79 | 1103.4 | 2.173
313.15 K, c1 = 2 | 1113.8 | 2.358
313.15 K, c1 = 2.5 | 1133.5 | 3.433
313.15 K, c1 = 3 | 1142.6 | 5.094
318.15 K, c1 = 0.2001 | 1003.3 | 0.6711
318.15 K, c1 = 0.25 | 1010.2 | 0.6737
318.15 K, c1 = 0.5 | 1021 | 0.866
318.15 K, c1 = 0.75 | 1035.1 | 0.8813
318.15 K, c1 = 1.008 | 1047.5 | 1.014
318.15 K, c1 = 1.529 | 1075.4 | 1.418
318.15 K, c1 = 1.79 | 1100.8 | 1.934
318.15 K, c1 = 2 | 1111 | 2.116
318.15 K, c1 = 2.5 | 1130.6 | 3.008
318.15 K, c1 = 3 | 1139.7 | 4.407
323.15 K, c1 = 0.2001 | 1001.1 | 0.6168
323.15 K, c1 = 0.25 | 1007.9 | 0.6185
323.15 K, c1 = 0.5 | 1018.6 | 0.796
323.15 K, c1 = 0.75 | 1032.7 | 0.804
323.15 K, c1 = 1.008 | 1045 | 0.9223
323.15 K, c1 = 1.529 | 1072.8 | 1.28
323.15 K, c1 = 1.79 | 1098.1 | 1.735
323.15 K, c1 = 2 | 1108.1 | 1.916
323.15 K, c1 = 2.5 | 1127.6 | 2.659
323.15 K, c1 = 3 | 1136.7 | 3.852
328.15 K, c1 = 0.2001 | 998.6 | 0.5697
328.15 K, c1 = 0.25 | 1005.4 | 0.5705
328.15 K, c1 = 0.5 | 1016.2 | 0.7351
328.15 K, c1 = 0.75 | 1030.1 | 0.7388
328.15 K, c1 = 1.008 | 1042.4 | 0.8431
328.15 K, c1 = 1.529 | 1070.1 | 1.162
328.15 K, c1 = 1.79 | 1095.2 | 1.566
328.15 K, c1 = 2 | 1105.2 | 1.757
328.15 K, c1 = 2.5 | 1124.6 | 2.368
328.15 K, c1 = 3 | 1133.7 | 3.394
333.15 K, c1 = 0.2001 | 995.6 | 0.5292
333.15 K, c1 = 0.25 | 1002.8 | 0.5294
333.15 K, c1 = 0.5 | 1013.7 | 0.6833
333.15 K, c1 = 0.75 | 1027.5 | 0.6798
333.15 K, c1 = 1.008 | 1039.7 | 0.7748
333.15 K, c1 = 1.529 | 1067.2 | 1.061
333.15 K, c1 = 1.79 | 1092.3 | 1.421
333.15 K, c1 = 2 | 1102.2 | 1.621
333.15 K, c1 = 2.5 | 1121.5 | 2.136
333.15 K, c1 = 3 | 1130.6 | 3.012
338.15 K, c1 = 0.2001 | 993.4 | 0.4937
338.15 K, c1 = 0.25 | 1002.8 | 0.4939
338.15 K, c1 = 0.5 | 1011 | 0.6409
338.15 K, c1 = 0.75 | 1024.7 | 0.629
338.15 K, c1 = 1.008 | 1036.9 | 0.7155
338.15 K, c1 = 1.529 | 1064.3 | 0.9729
338.15 K, c1 = 1.79 | 1089.3 | 1.296
338.15 K, c1 = 2 | 1099.1 | 1.501
338.15 K, c1 = 2.5 | 1118.3 | 1.927
338.15 K, c1 = 3 | 1127.5 | 2.693
343.15 K, c1 = 0.2001 | 990.6 | 0.4633
343.15 K, c1 = 0.25 | 997.3 | 0.463
343.15 K, c1 = 0.5 | 1008.1 | 0.6042
343.15 K, c1 = 0.75 | 1021.8 | 0.5855
343.15 K, c1 = 1.008 | 1033.9 | 0.6637
343.15 K, c1 = 1.529 | 1061.3 | 0.8961
343.15 K, c1 = 1.79 | 1086.3 | 1.188
343.15 K, c1 = 2 | 1096 | 1.435
343.15 K, c1 = 2.5 | 1115 | 1.748
343.15 K, c1 = 3 | 1124.3 | 2.423
348.15 K, c1 = 0.2001 | 987.7 | 0.4359
348.15 K, c1 = 0.25 | 994.3 | 0.4358
348.15 K, c1 = 0.5 | 1005.2 | 0.5715
348.15 K, c1 = 0.75 | 1018.7 | 0.5472
348.15 K, c1 = 1.008 | 1030.9 | 0.6181
348.15 K, c1 = 1.529 | 1058.2 | 0.8306
348.15 K, c1 = 1.79 | 1083.2 | 1.095
348.15 K, c1 = 2 | 1092.7 | 1.346
348.15 K, c1 = 2.5 | 1111.8 | 1.594
348.15 K, c1 = 3 | 1121.1 | 2.208

O=C([O-])[C@@H]1CCCN1.[K+] [potassium L-prolinate] + O
Details | mass density [kg/m3] | viscosity [mPa·s]
298.15 K, c1 = 0.5001 | 1026.6 | 1.105
298.15 K, c1 = 1 | 1054.7 | 1.38
298.15 K, c1 = 1.5 | 1088 | 1.861
298.15 K, c1 = 2 | 1111.4 | 2.293
298.15 K, c1 = 2.5 | 1145.8 | 3.181
298.15 K, c1 = 3 | 1166.9 | 4.054
303.15 K, c1 = 0.5001 | 1025.2 | 0.9857
303.15 K, c1 = 1 | 1053 | 1.232
303.15 K, c1 = 1.5 | 1086.4 | 1.642
303.15 K, c1 = 2 | 1109.2 | 2.028
303.15 K, c1 = 2.5 | 1143.2 | 2.755
303.15 K, c1 = 3 | 1164.1 | 3.491
308.15 K, c1 = 0.5001 | 1023.5 | 0.8913
308.15 K, c1 = 1 | 1051 | 1.103
308.15 K, c1 = 1.5 | 1084.5 | 1.465
308.15 K, c1 = 2 | 1107 | 1.794
308.15 K, c1 = 2.5 | 1140.6 | 2.409
308.15 K, c1 = 3 | 1161.3 | 3.038
313.15 K, c1 = 0.5001 | 1021.6 | 0.8086
313.15 K, c1 = 1 | 1049 | 0.9949
313.15 K, c1 = 1.5 | 1082.2 | 1.31
313.15 K, c1 = 2 | 1104.7 | 1.601
313.15 K, c1 = 2.5 | 1137.9 | 2.136
313.15 K, c1 = 3 | 1158.4 | 2.662
318.15 K, c1 = 0.5001 | 1019.6 | 0.7351
318.15 K, c1 = 1 | 1046.8 | 0.9035
318.15 K, c1 = 1.5 | 1081.2 | 1.2
318.15 K, c1 = 2 | 1102.5 | 1.439
318.15 K, c1 = 2.5 | 1135.1 | 1.903
318.15 K, c1 = 3 | 1155.5 | 2.354
323.15 K, c1 = 0.5001 | 1017.6 | 0.6741
323.15 K, c1 = 1 | 1044.5 | 0.8251
323.15 K, c1 = 1.5 | 1078.8 | 1.085
323.15 K, c1 = 2 | 1100.4 | 1.296
323.15 K, c1 = 2.5 | 1132.2 | 1.707
323.15 K, c1 = 3 | 1152.5 | 2.102
328.15 K, c1 = 0.5001 | 1015.2 | 0.6219
328.15 K, c1 = 1 | 1042.2 | 0.7569
328.15 K, c1 = 1.5 | 1076.6 | 0.9922
328.15 K, c1 = 2 | 1098.5 | 1.196
328.15 K, c1 = 2.5 | 1129.2 | 1.541
328.15 K, c1 = 3 | 1149.4 | 1.887
333.15 K, c1 = 0.5001 | 1012.8 | 0.5764
333.15 K, c1 = 1 | 1039.9 | 0.7002
333.15 K, c1 = 1.5 | 1074.7 | 0.9175
333.15 K, c1 = 2 | 1095.8 | 1.093
333.15 K, c1 = 2.5 | 1126.2 | 1.4
333.15 K, c1 = 3 | 1146.3 | 1.704
338.15 K, c1 = 0.5001 | 1010.4 | 0.5373
338.15 K, c1 = 1 | 1037.4 | 0.6493
338.15 K, c1 = 1.5 | 1073.7 | 0.8552
338.15 K, c1 = 2 | 1093.6 | 1.009
338.15 K, c1 = 2.5 | 1123 | 1.278
338.15 K, c1 = 3 | 1143.1 | 1.549
343.15 K, c1 = 0.5001 | 1008 | 0.5039
343.15 K, c1 = 1 | 1035.5 | 0.608
343.15 K, c1 = 1.5 | 1071.9 | 0.7966
343.15 K, c1 = 2 | 1094.3 | 0.9587
343.15 K, c1 = 2.5 | 1119.9 | 1.173
343.15 K, c1 = 3 | 1139.8 | 1.414
348.15 K, c1 = 0.5001 | 1005.6 | 0.4733
348.15 K, c1 = 1 | 1035.7 | 0.5792
348.15 K, c1 = 1.5 | 1070.5 | 0.7486
348.15 K, c1 = 2 | 1092.4 | 0.8972
348.15 K, c1 = 2.5 | 1116.6 | 1.082
348.15 K, c1 = 3 | 1136.5 | 1.299
